From ChEMBL document CHEMBL4004816, “Complementarity of DFT Calculations, NMR Anisotropy, and ECD for the Configurational Analysis of Brevipolides K-O from Hyptis brevipes” (J Nat Prod, 2017)
pIC50: −log10 of the molar value.

Tests used:
Assay type in all cases: functional, cell-based
HEp-2 = assay: Cytotoxicity against human Hep2 cells assessed as growth inhibition after 72 hrs by SRB assay; details: HEp-2, 72 h
PC-3 = assay: Cytotoxicity against human PC3 cells assessed as growth inhibition after 72 hrs by SRB assay; details: PC-3, 72 h
HCT-15 = assay: Cytotoxicity against human HCT15 cells assessed as growth inhibition after 72 hrs by SRB assay; details: HCT-15, 72 h
KB = assay: Cytotoxicity against human KB cells assessed as growth inhibition after 72 hrs by SRB assay
HeLa = assay: Cytotoxicity against human HeLa cells assessed as growth inhibition after 72 hrs by SRB assay
MCF7 = assay: Cytotoxicity against human MCF7 cells assessed as growth inhibition after 72 hrs by SRB assay; details: MCF7, 72 h

SMILES | pIC50 (HEp-2) | pIC50 (PC-3) | pIC50 (HCT-15) | pIC50 (KB) | pIC50 (HeLa) | pIC50 (MCF7)
COc1ccc(/C=C\C(=O)O[C@@H](C)[C@@H]2CC[C@H]([C@H](O)[C@H]3CC=CC(=O)O3)O2)cc1 | < 5.00 | 5.00 | < 5.00 | 5.02 | 5.38 | < 5.00
C[C@H](OC(=O)/C=C/c1ccc(O)c(O)c1)[C@@H]1CC[C@H]([C@H](O)[C@H]2CC=CC(=O)O2)O1 | 5.03 | < 5.00 | < 5.00 | 5.31 | 5.16 | < 5.00
C[C@H](OC(=O)/C=C\c1ccc(O)cc1)[C@@H]1CC[C@H]([C@H](O)[C@H]2CC=CC(=O)O2)O1 | 5.11 | 5.06 | < 5.00 | 5.12 | 5.48 | 5.03
C[C@H](OC(=O)/C=C/c1ccc(O)cc1)[C@@H]1CC[C@H]([C@H](O)[C@H]2CC=CC(=O)O2)O1 | < 5.00 | < 5.00 | < 5.00 | 5.44 | 5.02 | < 5.00
CC[C@]1(O)C[C@@H]2CN(CCc3c([nH]c4ccccc34)[C@@](C(=O)OC)(c3cc4c(cc3OC)N(C)[C@H]3[C@@](O)(C(=O)OC)[C@H](OC(C)=O)[C@]5(CC)C=CCN6CC[C@]43[C@@H]65)C2)C1 [VINBLASTINE] | 8.15 | 9.00 | 8.70 | 8.22 | 9.00 | 8.40
COc1ccc(/C=C/C(=O)O[C@@H](C)[C@@H]2CC[C@H]([C@H](O)[C@H]3CC=CC(=O)O3)O2)cc1 | 5.24 | 5.12 | < 5.00 | 5.77 | 5.22 | < 5.00
